IC50 data for 15 molecules are collected here from patent US20230219978A1, “COMPOUND HAVING MACROCYCLIC STRUCTURE AND USE THEREOF” (SCINNOHUB PHARMACEUTICAL CO., LTD, priority 2020, published 2023).

Format in all cases: biochemical
In assay [1] the target is T1, RET V804M (Homo sapiens, UniProt P07949, V804M).
T1 construct: purchased signalchem R02-12GG
Briefly: In vitro kinase activity assay (mobility shift assay), RET V804M. As to conditions: ATP 5.4 μM, reaction time 60 min. The method, then:
(§1) The IC50 (half inhibitory concentration) values of the compounds were used as an indicator to evaluate the inhibitory effect of the compound on RET wild-type, RET mutant, TRKa, SRC, BTK and/or mutated BTK kinase.
(§2) Using the method of Mobility shift assay, the compounds were tested for inhibitory activity against the following kinases: RET wild type, RET mutant, TRKa, SRC, BTK and/or mutated BTK. The initial concentration of the test compound was 1000 nM, 3-fold dilution, 10 concentrations, detected in a well for each concentration.
(§3) 20 mM hydroxyethylpiperazineethanesulfonic acid (Hepes) (pH 7.5) buffer, 10 mM MgCl2, 1 mM ethylene glycol bis(aminoethyl ether)tetraacetic acid (EGTA), 0.02% polyoxyethylene lauryl ether (Brij35), 0.02 mg/ml […] (BSA), 0.1 mM Na3VO4, 2 mM dithiothreitol (DTT), 1% DMSO.
(§4) The test compounds were dissolved in 100% dimethyl sulfoxide (DMSO) system, and prepared as 10 mM for use, and stored in a nitrogen cabinet away from light.
(§5) • (1) Preparing 1× kinase reaction buffer. • (2) Preparation of compound concentration gradient: the initial concentration of the compounds was 1000 nM, which was diluted as 100-fold final concentration of solution in 100% dimethyl sulfoxide (DMSO) in a 384-well plate. The compound was accurately 3-fold diluted with the kinase buffer solution, 10 concentrations in total, and the final concentration was 0.0508 nM. The 100-fold final concentration of solution in 100% dimethyl sulfoxide (DMSO) was obtained by dilution in 384 source plate. The liquid separator Echo 550 was used to transfer 250 nl of 100-fold final concentration of compound to the target 384 well plate. 250 nl of DMSO was added to the positive and negative control wells. • (3) 2.5-fold final concentration of kinase solution was prepared by the 1× kinase buffer. • (4) 10 4, of 2.5-fold final concentration of kinase solution was added to the compound well and the positive control well, respectively; 10 4, of 1× kinase buffer was added to the negative control well. • (5) After centrifuging at 1000 rpm for 30 second, the reaction plate was shaken and mixed, followed by incubation at room temperature for 10 min. • (6) a mixed solution of 25/15-fold final concentration of adenosine triphosphate (ATP) and kinase substrate was prepared by 1× kinase buffer. • (7) The mixed solution (15 μL) of 25/15-fold final concentration of adenosine triphosphate (ATP) and substrate was added to initiate the reaction. • (8) 384-well plate was centrifuged at 1000 rpm for 30 second, shaken and mixed well, and then incubated at room temperature for 30-240 min. • (9) After stopping the kinase reaction, the plate was centrifugated at 1000 rpm for 30 second, shaken and mixed well. • (10)The conversion rate was read with Caliper EZ Reader.
(§6) wherein Conversion%_sample is the conversion rate reading of the sample; Conversion%_min: the mean value of negative control wells, representing the conversion rate reading of wells without enzymes; Conversion%_max: the mean value of positive control wells, representing the conversion rate reading of wells without compound inhibition.
(§7) The log value of concentration was taken as the X axis, and the percentage inhibition rate was taken as the Y axis. Graphpad 6.0 analysis software was used to fit the dose-response curve, so as to obtain the IC50 value of each compound on the enzyme activity

In assay [2] the target is T2, RET G810R (Homo sapiens, UniProt P07949, G810R).
T2 construct: purchased Proqinase 1724-0000-1
T2 sequence (P07949 29-1114 G810R): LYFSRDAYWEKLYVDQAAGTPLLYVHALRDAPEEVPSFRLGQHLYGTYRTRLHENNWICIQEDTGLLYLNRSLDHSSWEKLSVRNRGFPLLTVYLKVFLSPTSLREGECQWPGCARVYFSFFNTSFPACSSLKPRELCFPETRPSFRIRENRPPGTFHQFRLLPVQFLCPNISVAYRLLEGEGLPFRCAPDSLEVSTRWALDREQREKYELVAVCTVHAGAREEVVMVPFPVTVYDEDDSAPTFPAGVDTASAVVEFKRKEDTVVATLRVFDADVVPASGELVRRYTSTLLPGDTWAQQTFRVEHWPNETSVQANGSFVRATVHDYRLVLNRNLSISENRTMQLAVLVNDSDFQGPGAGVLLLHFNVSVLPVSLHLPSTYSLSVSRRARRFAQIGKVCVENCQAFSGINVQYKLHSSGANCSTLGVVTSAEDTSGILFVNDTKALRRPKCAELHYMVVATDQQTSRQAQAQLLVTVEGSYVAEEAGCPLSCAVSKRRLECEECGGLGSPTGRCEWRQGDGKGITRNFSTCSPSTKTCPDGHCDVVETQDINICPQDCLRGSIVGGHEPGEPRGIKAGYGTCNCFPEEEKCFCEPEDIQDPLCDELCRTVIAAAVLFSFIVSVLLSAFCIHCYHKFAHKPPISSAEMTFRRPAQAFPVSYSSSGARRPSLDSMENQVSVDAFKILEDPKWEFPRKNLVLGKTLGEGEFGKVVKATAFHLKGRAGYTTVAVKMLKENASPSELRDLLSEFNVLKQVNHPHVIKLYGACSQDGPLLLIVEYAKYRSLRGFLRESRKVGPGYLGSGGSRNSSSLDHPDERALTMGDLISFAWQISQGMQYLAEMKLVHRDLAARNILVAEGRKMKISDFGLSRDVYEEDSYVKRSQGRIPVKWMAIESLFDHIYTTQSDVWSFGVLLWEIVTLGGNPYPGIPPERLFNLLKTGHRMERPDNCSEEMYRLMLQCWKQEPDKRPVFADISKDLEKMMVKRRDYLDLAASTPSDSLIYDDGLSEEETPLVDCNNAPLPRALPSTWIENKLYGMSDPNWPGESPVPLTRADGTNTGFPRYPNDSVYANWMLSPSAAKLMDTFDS
In words: In vitro kinase activity assay (mobility shift assay), RET G810R. As to conditions: ATP 201 μM, reaction time 4 h. The protocol: as §1, §2, §3, §4, §5, §6, §7

Assay [3] addresses T3, RET wt (Homo sapiens, UniProt P07949).
T3 construct: purchased Carna 08-159
Briefly: In vitro kinase activity assay (mobility shift assay), RET wild type. As to conditions: ATP 16 μM, reaction time 60 min. Put shortly:
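Each enzyme was first exposed to test compound (top 1000 nM, 3-fold dilutions, 10 concentrations, one well each) for 10 min at room temperature. Adding ATP and peptide substrate started the reaction, which proceeded 30-240 min before stopping. Conversion was then measured and curves fitted for IC50.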

Assay [4] addresses T4, BTK (Homo sapiens, UniProt Q06187).
T4 construct: purchased Carna 08-180
In words: In vitro kinase activity assay (mobility shift assay), BTK. To be noted: ATP 71 μM, reaction time 30 min. The method, then: as §1, §2, §3, §4, §5, §6, §7

Assay [5] concerns the target T5, BTK C481S (Homo sapiens, UniProt Q06187, C481S).
T5 construct: purchased Carna 08-547
Briefly: In vitro kinase activity assay (mobility shift assay), BTK C481S. To be noted: ATP 90 μM, reaction time 30 min. The protocol: as §1, §2, §3, §4, §5, §6, §7

The target in assay [6] is T6, TRKa (Homo sapiens, UniProt P04629).
T6 construct: purchased Carna 08-186
T6 sequence (P04629 33-796): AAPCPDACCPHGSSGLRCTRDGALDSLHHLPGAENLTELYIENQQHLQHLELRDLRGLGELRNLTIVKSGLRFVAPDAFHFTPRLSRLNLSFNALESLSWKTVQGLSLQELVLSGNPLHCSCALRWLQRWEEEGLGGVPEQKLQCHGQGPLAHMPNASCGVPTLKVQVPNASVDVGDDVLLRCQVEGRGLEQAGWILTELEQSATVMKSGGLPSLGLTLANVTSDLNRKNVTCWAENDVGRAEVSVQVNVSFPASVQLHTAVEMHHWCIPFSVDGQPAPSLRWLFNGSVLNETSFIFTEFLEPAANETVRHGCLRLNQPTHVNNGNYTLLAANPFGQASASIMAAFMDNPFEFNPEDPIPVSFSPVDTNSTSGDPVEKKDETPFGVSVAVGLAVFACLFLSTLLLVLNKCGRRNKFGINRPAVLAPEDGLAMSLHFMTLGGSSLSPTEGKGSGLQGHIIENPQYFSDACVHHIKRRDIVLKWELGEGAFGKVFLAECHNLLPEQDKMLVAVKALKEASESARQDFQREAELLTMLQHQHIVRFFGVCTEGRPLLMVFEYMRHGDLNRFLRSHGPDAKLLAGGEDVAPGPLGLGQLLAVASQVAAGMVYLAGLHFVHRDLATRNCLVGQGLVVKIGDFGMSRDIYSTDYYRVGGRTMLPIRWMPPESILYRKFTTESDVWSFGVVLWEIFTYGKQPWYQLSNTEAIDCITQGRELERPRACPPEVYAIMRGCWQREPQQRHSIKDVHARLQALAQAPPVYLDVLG
Briefly: In vitro kinase activity assay (mobility shift assay), TRKa. As to conditions: ATP 47.8 μM, reaction time 30 min. The protocol: as §1, §2, §3, §4, §5, §6, §7

Bounds are passed on as bounds.

T3 sequence (P07949 29-1114): as the sequence (P07949 29-1114 G810R) above, with R782G counted along it
T5 sequence (Q06187 whole entry C481S): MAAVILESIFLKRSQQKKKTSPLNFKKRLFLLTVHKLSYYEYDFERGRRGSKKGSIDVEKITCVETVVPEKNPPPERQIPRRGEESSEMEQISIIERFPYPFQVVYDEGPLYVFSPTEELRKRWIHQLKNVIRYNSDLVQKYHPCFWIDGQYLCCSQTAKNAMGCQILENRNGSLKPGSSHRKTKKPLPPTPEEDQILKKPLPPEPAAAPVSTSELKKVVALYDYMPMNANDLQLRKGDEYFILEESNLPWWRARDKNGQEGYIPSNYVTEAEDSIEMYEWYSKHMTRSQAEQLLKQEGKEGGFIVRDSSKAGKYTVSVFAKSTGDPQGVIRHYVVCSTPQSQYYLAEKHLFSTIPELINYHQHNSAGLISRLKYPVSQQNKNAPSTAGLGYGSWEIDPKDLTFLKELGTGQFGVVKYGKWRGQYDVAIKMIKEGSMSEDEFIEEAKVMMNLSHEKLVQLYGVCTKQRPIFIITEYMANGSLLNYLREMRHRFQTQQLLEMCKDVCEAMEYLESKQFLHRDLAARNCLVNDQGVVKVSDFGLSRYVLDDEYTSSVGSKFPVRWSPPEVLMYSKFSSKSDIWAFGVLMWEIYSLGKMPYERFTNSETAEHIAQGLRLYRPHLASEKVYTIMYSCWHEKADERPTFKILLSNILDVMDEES
T1 sequence (P07949 29-1114 V804M): as the sequence (P07949 29-1114 G810R) above, with V776M, R782G counted along it
T4 sequence (Q06187 whole entry): as the sequence (Q06187 whole entry C481S) above, with S481C counted along it

As to `C[C@H]1CNC(=O)c2c(C#N)nn3c(N)c(-c4ccccc4)c(nc23)NCc2cc(F)cnc2O1` [Example 77, (S, 1^3E, 1^4E)-1^2-cyano-1^6-phenyl-1^7-amino-4^5-fluoro-6-methyl-5-oxa-2,8-diaza-1(5,3)-pyrazolo[1,5-a]pyrimidinyl-4(3,2)-pyridinacyclononaphan-9-one], the half-maximal inhibitory concentration (IC50) in assay [1], in assay [2], in assay [3], in assay [4] and in assay [5] was greater than 1000 nM each time.

Consider `C[C@H]1CNC(=O)c2cnn3cc(-c4cccc(Cl)c4)c(nc23)NCc2cc(F)cnc2O1` [Compound 3, (S, 1^3E, 1^4E)-1^6-(3-chlorophenyl)-4^5-fluoro-6-methyl-5-oxa-2,8-diaza-1(5,3)-pyrazolo[1,5-a]pyrimidina-4(3,2)-pyridinacyclononaphan-9-one], for which the IC50 in assay [6] was greater than 10000 nM; in assay [3], 22 nM; in assay [5] it was 54.8 nM.

For `C[C@H]1CNC(=O)c2cnn3cc(-c4ccc(Cl)cc4)c(nc23)NCc2cc(F)cnc2O1` [Compound 9, (S, 1^3E, 1^4E)-1^6-(4-chlorophenyl)-4^5-fluoro-6-methyl-5-oxa-2,8-diaza-1(5,3)-pyrazolo[1,5-a]pyrimidina-4(3,2)-pyridinacyclononaphan-9-one], the IC50 in assay [6] is greater than 10000 nM; in assay [3] it was 8.2 nM; in assay [4], 25.9 nM; in assay [5] it was 13 nM.

With `C[C@H]1CNC(=O)c2cnn3cc(N4CCOCC4)c(nc23)NCc2cc(F)cnc2O1` [Compound 17, (S, 1^3E, 1^4E)-4^5-fluoro-6-methyl-1^6-morpholino-5-oxa-2,8-diaza-1(5,3)-pyrazolo[1,5-a]pyrimidina-4(3,2)-pyridinacyclononaphan-9-one], the IC50 in assay [6], in assay [3], in assay [4] and in assay [5] was greater than 10000 nM each time.

For the molecule `C[C@H]1CNC(=O)c2cnn3c(N)c(-c4ccc5[nH]ccc5c4)c(nc23)NCc2cc(F)cnc2O1` [Compound 53, (S, 1^3E, 1^4E)-1^7-amino-4^5-fluoro-1^6-(1H-indo1-5-yl)-6-methyl-5-oxo-2,8-diaza-1(5,3)-pyrazolo[1,5-a]pyrimidin-4(3,2)-pyridinacyclononaphan-9-one], the IC50 in assay [2], in assay [3], in assay [4] and in assay [5] was greater than 1000 nM each time.

For the molecule `C[C@H]1CNC(=O)c2cnn3cc(-c4cnn(C)c4)c(nc23)NCc2cc(F)cnc2O1` [Compound 24], the IC50 in assay [6] was greater than 10000 nM; in assay [3] it was 20 nM; in assay [4], 296 nM; in assay [5] it was 398 nM.

Consider `Nc1c(-c2ccccc2)c2nc3c(cnn13)C(=O)NC1CCCC1Oc1ncc(F)cc1CN2` (stereo not drawn) [Example 78, (6^3E, 6^4E)-6^7-amino-1^5-fluoro-6^6-phenyl-2-oxo-4,7-diaza-6(3,5)-pyrazolo[1,5-a]pyrimidin-1(2,3)-pyridin-3(1, 2)-cyclopentanacyclooctaphan-5-one], for which the IC50 in assay [1] came to 24 nM; in assay [2], 337 nM; in assay [3] it was 2.5 nM; in assay [4], 1.7 nM; in assay [5] it was 1.7 nM.

On to `C[C@H]1CNC(=O)c2c(Br)nn3c(N)c(-c4ccccc4)c(nc23)NCc2cc(F)cnc2O1` [Example 76, (S, 1^3E, 1^4E)-1^2-bromo-1^6-phenyl-1^7-amino-4^5-fluoro-6-methyl-5-oxa-2,8-diaza-1(5,3)-pyrazolo[1,5-a]pyrimidinyl-4(3,2)-pyridinacyclononaphan-9-one], for which the half-maximal inhibitory concentration (IC50) in assay [1] is greater than 1000 nM; in assay [2] it was greater than 1000 nM; in assay [3] it was 922 nM; in assay [4], greater than 1000 nM; in assay [5] it was greater than 1000 nM.

With `CC(C)OC(=O)Nc1ccc(-c2cn3ncc4c3nc2NCc2cc(F)cnc2O[C@@H](C)CNC4=O)c(Cl)c1` [Compound 45, iso-propyl 3-chloro-4-((S, 1^3E, 1^4E)-4^5-fluoro-6-methyl-9-oxo-5-oxa-aza-1(5,3)-pyrazolo[1,5-a]pyrimidin-4(3,2)-pyridinacyclononaphan-1^6-yl)phenyl) carbamate], the IC50 in assay [2] is 70 nM; in assay [3], 3.9 nM; in assay [4] it was 346 nM; in assay [5], 42.4 nM.

As for `C[C@H]1CNC(=O)c2cnn3c(N)c(-c4ccccc4F)c(nc23)NCc2cc(F)cnc2O1` [Example 66], the IC50 in assay [6] came out at 101 nM; in assay [2], 53.7 nM; in assay [3], 1.3 nM; in assay [4] it was 1.7 nM; in assay [5], 1.45 nM.

As to `C[C@H]1CN(C)C(=O)c2cnn3c(N)c(-c4ccccc4)c(nc23)NCc2cc(F)cnc2O1` [Example 75, (S, 1^3E, 1^4E)-1^7-amino-4^5-fluoro-6,8-dimethyl-1^6-phenyl-5-oxo-2,8-diaza-1(5,3)-pyrazolo[1,5-a]pyrimidin-4(3,2)-pyridinacyclononaphan-9-one], the IC50 in assay [1] was 311 nM; in assay [2], greater than 1000 nM; in assay [3] it was 20 nM; in assay [4], 22 nM; in assay [5] it was 52 nM.

As for `C[C@H]1CNC(=O)c2cnn3c(N)c(-c4ccc(F)cc4)c(nc23)NCc2cc(F)cnc2O1` [Compound 51, (S, 1^3E, 1^4E)-1^7-amino-1^6-(4-fluorophenyl)-4^5-fluoro-6-methyl-5-oxa-2,8-diaza-1(5,3)-pyrazolino[1,5-a]pyrimidin4(3,2)-pyridinacyclononaphan-9-one], the IC50 was 1.6 nM in assay [3], 1 nM in assay [4] and 1.9 nM in assay [5].

As to `COC(=O)Nc1ccc(-c2c3nc4c(cnn4c2N)C(=O)NC[C@H](C)Oc2ncc(F)cc2CN3)cc1` [Compound 49, methyl (4-((S, 1^3E, 1^4E)-1^7-amino-4^5-fluoro-6-methyl-9-oxo-5-oxa-2,8-diaza-1(5,3)-pyrazolino [1,5-a]pyrimidin-4(3,2)-pyridinacyclononaphan-1^6-yl)-phenyl)carbamate], the concentration for half-maximal inhibition (IC50) in assay [1] was 1.3 nM; in assay [2] it was 9.3 nM; in assay [3], less than 0.51 nM; in assay [4], 9.2 nM; in assay [5], 15 nM.

On to `Nc1c(-c2ccccc2)c2nc3c(cnn13)C(=O)N1CCCC1COc1ncc(F)cc1CN2` (stereo not drawn) [Example 79], for which the IC50 in assay [1] is greater than 1000 nM; in assay [2], greater than 1000 nM; in assay [3], 104 nM; in assay [4], 45 nM; in assay [5] it was 97 nM.

Take `Cc1nn2c(N)c(-c3ccccc3)c3nc2c1C(=O)NC[C@H](C)Oc1ncc(F)cc1CN3` [Example 74, (S, 1^3E, 1^4E)-1^7-amino-4^5-fluoro-1^2,6-dimethyl-1^6-phenyl-5-oxa-2,8-diaza-1(5,3)-pyrazolo[1,5-a]pyrimidinyl-4(3,2)-pyridinacyclononaphan-9-one]: the IC50 is greater than 1000 nM in assay [1]; greater than 1000 nM in assay [2]; 323 nM in assay [3]; greater than 1000 nM in assay [4]; greater than 1000 nM in assay [5].

What is called IC50 is the concentration that gives 50% inhibition.
